Legend:
[1] = Solubility (statement); format: physicochemical
[2] = tested on: rat basilar arteries; assay: 48 h organ culture of basilar artery, VDCC independent contraction (Ca2+ curve after ET-1 precontraction with nimodipine); format: cell-based; settings: 1 μM inhibitor, 48 h OC, 10^-7 M nimodipine
Procedure: Rats were sedated with O2/CO2 (30/70%) and sacrificed by decapitation. Brains were gently removed and chilled in a cold oxygenated buffer solution of the following composition: 119 mM NaCl, 4.6 mM KCl, 1.5 mM CaCl2, 1.2 mM MgCl2, 1.2 mM NaH2PO4, 15 mM NaHCO3 and 5.5 mM Glucose; pH 7.4. The basilar artery (BA) was carefully dissected from the brain in a physiological buffer solution followed by either OC (naïve animals) or directly mounted in a wire myograph (arteries from rats which has undergone surgical procedures). Segments were incubated for 48 hours at 37° C. in humidified 5% CO2/O2 in DMEM supplemented with streptomycin and penicillin with inhibitors or vehicle (DMSO). Culture media was changed after 24 hours.
The segments were equilibrated in physiological buffer aerated with 95% O2/5% CO2, pH of 7.4, temperature set at 37° C. and the wires were separated for isometric pretension at 2 Nm^−1. The arterial segments were exposed two or three times with 60 mM K^+, by exchanging the buffer with a 60 mM K^+ buffer solution. To maintain equal osmolarity, a proportional amount of Na^+ had been removed from the buffer. An absolute cut-off was set at 2.0 mN K^+max for inclusion of arterial segments from rats that underwent the surgical procedure. Endothelium function was evaluated with the addition of 5-HT (3.10^−7 M) followed by carbachol (10^−5 M). […]

SMILES: CC(=O)Nc1cccc(-n2c(=O)n(C3CC3)c(=O)c3c(Nc4ccc(I)cc4F)n(C)c(=O)c(C)c32)c1 [trametinib]
- solubility [1]: excellent solubility
- VDCC independent contraction [2]: significantly prevented

Source: US20220273660A1, “MEK INHIBITOR FOR TREATMENT OF STROKE” (EDVINCE AB, priority 2019, published 2022)
